Data published in US20030078211A1, “Compositions and methods for inhibiting bone resorption” (Merck & Co., Inc., priority 1998, published 2003).
*: point of attachment. Cbz = O=C(OCc1ccccc1)*; CH2F = FC*

Legend:
[1] = test system: 34 kDa Mst kinase fragment; assay: In-gel kinase assay of lysates of treated osteoclast-like cells; format: cell-based, mice; conditions: for activation of a 34 kDa Kinase: FIG. 3; for activation of the 34 kDa Mst Kinase fragment: FIG. 2
Experimental: (§1) Murine co-cultures of osteoblasts and marrow cells are prepared using the methods of Wesolowski, et al., Exp Cell Res, (1995), 219, pp. 679-686, which is incorporated by reference herein in its entirety. Bone marrow cells are harvested from 6-week-old male Balb/C mice by flushing marrow spaces of freshly isolated long bones (tibiae and femora) with α-MEM (minimal essential media) containing penicillin/streptomycin (100 I.U./ml of each and 20 mM Hepes buffer). The bone marrow cells are suspended in α-MEM and the cells are filtered through an approximately 70 μm cell strainer. The filtrate is centrifuged at about 300×g for about 7 minutes. The resulting pellet is resuspended in α-MEM supplemented with fetal calf serum (10% v/v) and 10 nM 1, 25-(OH)2 vitamin D3. These bone marrow isolates are added to sub-confluent monolayers of osteoblastic MB 1.8 cells in cell culture plates and cultured for 7 days at 37° C. in the presence of 5% CO2. Culture media is replenished ever other day. Fusion of the osteoclast precursor cells from bone marrow (with each other) to form multinucleated osteoclast-like cells typically occurs after about 7 days. Osteoclast-like cells are enriched by sequential treatment with collagenase (1 mg/mL in phosphate buffered saline) for one hour at 37° C. and EDTA (0.2 g/L in phosphate buffered saline) for 20 min at 37° C. Non-adherent cells are rinsed away by washing with phosphate buffered saline. Osteoclast-like cells which are resistant to the sequential treatments are present at about 95% purity and are maintained in α-MEM supplemented with fetal calf serum (10% v/v), 10 nM 1,25-(OH)2 vitamin D3, macrophage-colony-stimulating factor (5 ng/mL).
The compounds to be evaluated are prepared as a solution of the desired concentration in α-MEM. Examples of compounds that can be evaluated include nitrogen-containing bisphosphonates such as alendronate monosodium trihydrate, as well as compounds that block the effects of these inhibitors, such as caspase inhibitors such as Z-Val-Ala-Asp-FMK, Z-Asp-Glu-Val-Asp-FMK, and Z-Tyr-Val-Ala-Asp-FMK. Combinations of compounds can also be evaluated. The solutions of the compounds to be evaluated are added to the cultures for a time period of 17-24 hours. No treatment controls (controls not treated with comcpounds) are prepared by adding equivalent volumes of α-MEM to the control dishes.
Cells are then harvested and lysed in a HEPES (N-(2-hydroxyethyl)piperazine-N′-(2-ethansulfonic acid) or Tris buffer containing the following: β-glycerophosphate (50 mM); Na3VO4 (1 mM); NaF (1 mM); Microcystin LR (1 μM); leupeptin (10 μg/ml); aprotinin (10 μg/ml); phenylmethyl sulfonylfluoride (1 mM). Protein concentrations are determined for each lysate and 5-20 μg are loaded into each lane of a SDS-PAGE (sodium dodecyl sulfate-polyacrylamide gel electrophoresis) gel containing Myelin Basic Protein, or another kinase substrate, which has been polymerized into the gel at a concentration between 50-400 μg/ml. Molecular weight standards are also loaded into one or more lanes of the gels. In-gel kinase assays are run according to a standard procedure based on Kameshita and Fujisawa, 1989 (Anal. Biochem. 183:139-143) and of Gotoh et al., 1990 (Eur. J. Biochem. 193: 661-669), both references being incorporated by reference herein in their entirety. The proteins are electrophoresed in the above gels. The gels are then successively soaked in 50 mM HEPES, pH 7.6; 5 mM 2-mercaptoethanol and each of the following (for each wash): (a) 20% isopropanol; (b) no additions; (c) urea (6 M); (d) Urea (3 M); (e) Urea (0.75 M); and Tween 20 (0.05% vol:vol). Kinase reactions are then run by first soaking the gels in 20 mM HEPES, pH 7.6; 20 mM MgCl2; 2 mM DTT and then in the same buffer containing […] ATP (non-radioactive) with ca. 1000 cpm/pmol ^32P-γ-ATP. The gels are then washed six times with 5% trichloroacetic acid and 1% pyrophosphate.

Mst 1 = assay: In-gel kinase assay using myelin basic protein as a substrate, purified osteoclast-like cells (FIG. 4); format: cell-based, mice; conditions: for effect of caspase inhibitor on activation of Mst 1 by alendronate monosodium trihydrate: 20 μM caspase inhibitor with 30 μM alendronate monosodium trihydrate, FIG. 4 lanes 6-8
Experimental: as §1, with “Osteoclast-like cells which are resistant to the sequential treatments are present at about 95% purity and are maintained in α-MEM supplemented with fetal calf serum (10% v/v), 10 nM 1,25-(OH)2 vitamin D3, macrophage-colony-stimulating factor (5 ng/mL).” left out
The compounds to be evaluated are prepared as a solution of the desired concentration in α-MEM. Examples of compounds that can be evaluated include nitrogen-containing bisphosphonates such as alendronate monosodium trihydrate, as well as compounds that block the effects of these inhibitors, such as caspase inhibitors such as Z-Val-Ala-Asp-FMK, Z-Asp-Glu-Val-Asp-FMK, and Z-Tyr-Val-Ala-Asp-FMK. Combinations of compounds can also be evaluated. The solutions of the compounds to be evaluated are added to the cultures for a time period of 17-24 hours. […]
Cells are then harvested and lysed in a HEPES (N-(2-hydroxyethyl)piperazine-N′-(2-ethansulfonic acid) or Tris buffer containing the following: β-glycerophosphate (50 mM); Na3VO4 (1 mM); NaF (1 mM); Microcystin LR (1 μM); leupeptin (10 μg/ml); aprotinin (10 μg/ml); phenylmethyl sulfonylfluoride (1 mM). Protein concentrations are determined for each lysate and 5-20 μg are loaded into each lane of a SDS-PAGE (sodium dodecyl sulfate-polyacrylamide gel electrophoresis) gel containing Myelin Basic Protein, or another kinase substrate, which has been polymerized into the gel at a concentration between 50-400 μg/ml. […]

osteoclast = assay: Osteoclast cell cultures and bone resorption assays; format: cell-based
[2] = test system: Mst (mammalian Sterile-20-like kinase); assay: Bisphosphonate-induced cleavage of Mst in osteoclasts; format: cell-based

| Compound | activation of the 34 kDa Mst Kinase fragment ([1]; 30 μM, about 17 hours) | activation of the 34 kDa Mst Kinase fragment ([1]; 100 μM, about 17 hours) | activation of a 34 kDa Kinase ([1]; 100 μM, 17 hours) | activation of a 34 kDa Kinase ([1]; 300 μM, 17 hours) | effect of caspase inhibitor on activation of Mst 1 by alendronate monosodium trihydrate (Mst 1) | effect on the inhibitory effect otherwise observed with a bisphosphonate such as alendronate monosodium trihydrate (osteoclast) | also measured |
| --- | --- | --- | --- | --- | --- | --- | --- |
| NCCCC(O)(P(=O)(O)O)P(=O)(O)O [alendronate monosodium trihydrate, 4-amino-1-hydroxybutylidene-1,1-bisphosphonic acid monosodium trihydrate] | activation | activation |  |  |  |  | activation of a 34 kDa Kinase ([1]; 10 μM, about 17 hours): activation; activation of the 34 kDa Mst Kinase fragment immunoprecipitated by anti-Mst and anti-Krs antibody cocktail ([1]; 30 μM, FIG. 1 lane 3): activated; activation of a 34 kDa Kinase ([1]; 30 μM, about 17 hours): activation; activation of Mst 1 (Mst 1; 30 μM, osteoclast-like cells, FIG. 4): activation |
| CC(O)(P(=O)(O)O)P(=O)(O)O [etidronate disodium] | fail to activate | fail to activate | fail to activate | fail to activate |  |  |  |
| O=P(O)(O)C(Sc1ccc(Cl)cc1)P(=O)(O)O [tiludronate disodium] | fail to activate | fail to activate | fail to activate | fail to activate |  |  |  |
| Cbz-Val-Ala-Asp-CH2F |  |  |  |  | blocked | can block the inhibitory effect | activation of the 34 kDa Kinase by alendronate when coincubated with the caspase inhibitor ([1]; coincubation with alendronate, FIG. 3 lane 8): does not activate; effect on cleavage of Mst induced by bisphosphonates such as alendronate monosodium trihydrate [2]: prevent the cleavage of Mst |
| Z-Asp-Glu-Val-Asp-FMK (Cbz-DEVD-CH2F; SMILES CC(C)[C@H](NC(=O)[C@H](CCC(=O)O)NC(=O)[C@H](CC(=O)O)NC(=O)OCc1ccccc1)C(=O)N[C@@H](CC(=O)O)C(=O)CF) |  |  |  |  | blocked | can block the inhibitory effect |  |
| Z-Tyr-Val-Ala-Asp-FMK (Cbz-YVAD-CH2F; SMILES CC(C)[C@H](NC(=O)[C@H](Cc1ccc(O)cc1)NC(=O)OCc1ccccc1)C(=O)N[C@@H](C)C(=O)N[C@@H](CC(=O)O)C(=O)CF) |  |  |  |  | blocked | can block the inhibitory effect |  |
